Measured values reported in patent US5109024A, “Polyamine derivatives as antineoplastic agents” (Merrell Dow Pharmaceuticals Inc., priority 1991, dated 1992).
Where a name gives a salt, the structure may show the parent alone. Read-outs that look alike come from different tables or passages of the source.

Tests used:
L1210 leukemia [1] = experiment: animal or person; assay type: in vivo, mice (BDFl male); conditions: Mus musculus, L1210, ip, 10 mg/Kg/day, read-out: % T/C (mean survival time treated/mean survival time control ×100)
Protocol: The following study of the antitumor activity of the compounds of formula (I) against L1210 leukemia illustrates this aspect of the present invention.
Groups of 6 mice (BDFl male) were inoculated i.p. with 10^5 L1210 leukemia cells on day 0. Test compounds or vehicle (Control group) were administered at the indicated doses starting on day 1 and continuing through day 5 or 9. Relative survival time was determined and expressed as % T/C (mean survival time treated/mean survival time control ×100). Presence or absence of delayed toxicity was determined by an examination o the animal's external appearance and behavior during the study. For example, an emaciated condition is a key indication of delayed toxicity in these studies.

L1210 leukemia [2] = conditions: 6.25 mg/Kg × 4 doses per day, days 3 thru 7, n=6, Edwards et al., cited from earlier work
L1210 leukemia [3] = experiment: Curative Effect Against Advanced L1210 Leukemia (survival, cures); assay type: in vivo, mice (BDFl male); conditions: for Cured (mice surviving beyond day 45) / Survival in days (Mean ± S.E.): n=5
Protocol: In an additional study, groups of 5 mice (BDFl male) were inoculated i.p. with 10^5 L1210 leukemia cells on day 0. N,N'-bis[3-(ethylamino)propyl]-1,7-diaminoheptane or vehicle (Control group) were administered at the indicated doses and on the indicated days. […] In a similar study, N,N'-bis[3-(amino)propyl]-1,8-diaminooctane, administered at a dose of […] on days 3 through 7, provided a %T/C of 350 but no cures in 6 animals [Edwards et al., J. Med. Chem. 33, 1369 (1990), See Table II infra].

[4] = system: MCA-38 colon adenocarcinoma cells; experiment: Experimental Murine Liver Metastasis (MCA-38 colon adenocarcinoma cells injected intrasplenically); assay type: in vivo, C57BL/6 mice; conditions: i.p., day 14; for Liver Metastasis No. foci ± S.E.: n = 6, p < 0.001, control 220.6 ± 22.2
Protocol: C57BL/6 mice were injected intrasplenically on day 0 with MCA-38 colon adenocarcinoma cells (1×10^5) so as to induce hepatic metastasis. Liver metastatic foci were determined as described by Bowlin et al. [Cancer Res. 50, 5460 (1990)]. Briefly, injected animals were randomly allocated to one of three treatment groups, 6 animals per group, and test compound or vehicle (Control) was administered i.p. at the doses and times indicated in Table 3. Liver metastatic foci were determined on day 14.

[5] = system: 3LL (Lewis lung) carcinoma cells; experiment: Experimental Murine Lung Metastasis (3LL Lewis lung carcinoma cells injected into footpad); assay type: in vivo, C57BL/6 mice
Protocol: C57BL/6 mice were injected into the footpad on day 0 with 3LL (Lewis lung) carcinoma cells (1×10^6) so as to induce lung metastasis. Lung metastatic foci were determined as described by Sunkara et al. [J.Biological Response Modifiers 8, 170 (1989)]. Briefly, injected animals were randomly allocated to one of two treatment groups, 6 animals per group, and test compound or vehicle (Control) was administered i.p. at the doses and times indicated in Table 4. Lung metastatic foci were determined on day 18.

[6] = 5 mg/Kg × 4 doses per day, days 3, 4, 5
[7] = 5 mg/Kg × 4 doses per day, days 3, 4
[8] = 10 mg/Kg × 4 doses per day, days 3, 4

Compound: NCCCNCCCCCCCCNCCCN [Compound 26547, N,N'-bis[3-(amino)propyl]-1,8-diaminooctane]
- response vs control in vivo at 10 mg/kg (L1210 leukemia [1]; days 1-9): 171%
- % T/C (L1210 leukemia [2]; J. Med. Chem. 33, 1369 (1990)): 350%
- Cured (L1210 leukemia [2]; J. Med. Chem. 33, 1369 (1990)): 0/6
- Cured (L1210 leukemia [2]; J. Med. Chem. 33, 1369 (1990), listed as N,N'-bis[3-(amino)propyl]-1,8-diaminooctane): no cures
- Delayed toxicity (L1210 leukemia [2]): exhibited delayed toxicity

Compound: CNCCCNCCCCCCCCNCCCNC [Compound 27259, N,N'-Bis(3-(methylamino)propyl)-1,8-octanediamine tetrahydrochloride]
- response vs control in vivo at 10 mg/kg (L1210 leukemia [1]; days 1-9): 172%

Compound: CCNCCCNCCCCCCCCNCCCNCC [Compound 27393, N,N'-Bis(3-(ethylamino)propyl)-1,8-octanediamine tetrahydrochloride]
- response vs control in vivo at 10 mg/kg (L1210 leukemia [1]; days 1-9): 112%

Compound: CNCCCNCCCCCCCNCCCNC [Compound 28249, N,N'-bis[3-(methylamino)propyl]-1,7-diaminoheptane]
- response vs control in vivo at 10 mg/kg (L1210 leukemia [1]; days 1-5): 110%

Compound: CCNCCCNCCCCCCCNCCCNCC [Compound 28314, N,N'-Bis[3-(ethylamino)propyl]-1,7-heptanediamine]
- response vs control in vivo at 10 mg/kg (L1210 leukemia [1]; days 1-5): 200%
- Cured (mice surviving beyond day 45) (L1210 leukemia [3]; [6]): 5/5
- Survival in days (Mean ± S.E.) (L1210 leukemia [3]; [6]): > 45 days
- Cured (mice surviving beyond day 45) (L1210 leukemia [3]; [7]): 0/5
- Survival in days (Mean ± S.E.) (L1210 leukemia [3]; [7]): 16.0 ± 4.0 days
- Cured (mice surviving beyond day 45) (L1210 leukemia [3]; [8]): 5/5
- Survival in days (Mean ± S.E.) (L1210 leukemia [3]; [8]): > 45 days
- Curative effect against L1210 leukemia in vivo (L1210 leukemia [3]; at 20 and 40 mg/Kg/day): effective in providing a curative effect
- Liver Metastasis % Inhibition ([4]; days 1-5, 5 mg/Kg): 87%
- Liver Metastasis No. foci ± S.E. ([4]; days 1-5, 5 mg/Kg): 29.2 ± 7.7 foci
- Liver Metastasis % Inhibition ([4]; days 3-8, 5 mg/Kg): 72%
- Liver Metastasis No. foci ± S.E. ([4]; days 3-8, 5 mg/Kg): 62.3 ± 17.5 foci
- Lung Metastasis % Inhibition ([5]; days 1-5, 10 mg/Kg, i.p., day 18): 100%
- Lung Metastasis No. foci ± S.E. ([5]; days 1-5, 10 mg/Kg, i.p., day 18, n = 6, control 21.3 ± 11.5): 0 foci
- antimetastatic effect in inhibiting lung metastasis ([5]; results as presented in Table 4): antimetastatic effect

Compound: CC(N)CCNCCCCCCCNCCC(C)N (centres unmarked) [Compound 28516, N,N'-bis[3-(amino)butyl]-1,7-diaminoheptane, reference compound]
- response vs control in vivo at 10 mg/kg (L1210 leukemia [1]; days 1-5): 200%

Compound: CNCC(C)CNCCCCCCCNCC(C)CNC (centres unmarked) [Compound 28600, N,N'-bis[3-(methylamino)-2-(methyl)propyl]-1,7-diaminoheptane]
- response vs control in vivo at 10 mg/kg (L1210 leukemia [1]; days 1-5): 132%

Compound: CNC(C)CCNCCCCCCCNCCC(C)NC (centres unmarked) [Compound 101060, N,N'-Bis[3-(methylamino)butyl]-1,7-diaminoheptane tetrahydrochloride]
- response vs control in vivo at 10 mg/kg (L1210 leukemia [1]; days 1-5): 180%
